This is an account of results in patent US20100222269A1, “IMPROVED DERIVATIVES OF AMYLIN” (priority 2007, published 2010).

The test addresses T1, Amylin 3(a) receptor (human calcitonin receptor (CTa) with RAMP-3) (Homo sapiens, UniProt O60896+P30988).
T1 construct: expressed in transfected cells; host or cells: BHK570 (baby hamster kidney) cells, stably transfected, with CRE-luciferase reporter
Nature of the test: Amylin luciferase assay (CRE-luciferase reporter in BHK Amylin 3(a)//CRE-luc cells). It counts as cell-based. To be noted: BHK570 cells with human calcitonin receptor (CTa), RAMP-3 and CRE-luciferase reporter; 4 hours incubation; read-out: Potency luciferase assay. The method in brief: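 BHK570 cells stably expressing human calcitonin receptor (CTa), RAMP-3 and a CRE-luciferase reporter, about 20.000 cells/well, were exposed to standard or sample for 4 h at 37° C in phenol-red-free DMEM with 10% FBS and 10 mM Hepes pH 7,4. Luminescence was read after 30 min with LucLite at room temperature.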
On the technique in general: A reporter such as luciferase makes a cellular process visible.

Structures are written as SMILES. Starred links: 1 amine or outer side, 2 acyl side, 3 side chain; linkers in the order of their positions; H or OH if unused. Positions of bridges follow the written chain, without caps; N, C: chain ends. Residues, ends and D or L forms follow the SMILES beside them. *: point of attachment. C20 diacid = O=C(O)CCCCCCCCCCCCCCCCCCC(=O)*; γGlu = O=C(O)[C@H](CCC(=O)[*:2])N[*:1]

T1 sequence (O60896 24-148): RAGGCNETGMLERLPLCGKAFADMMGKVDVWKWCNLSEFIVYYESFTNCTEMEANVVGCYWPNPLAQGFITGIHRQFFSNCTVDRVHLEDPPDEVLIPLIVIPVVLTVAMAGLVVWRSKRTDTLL
T1 sequence (P30988 25-474): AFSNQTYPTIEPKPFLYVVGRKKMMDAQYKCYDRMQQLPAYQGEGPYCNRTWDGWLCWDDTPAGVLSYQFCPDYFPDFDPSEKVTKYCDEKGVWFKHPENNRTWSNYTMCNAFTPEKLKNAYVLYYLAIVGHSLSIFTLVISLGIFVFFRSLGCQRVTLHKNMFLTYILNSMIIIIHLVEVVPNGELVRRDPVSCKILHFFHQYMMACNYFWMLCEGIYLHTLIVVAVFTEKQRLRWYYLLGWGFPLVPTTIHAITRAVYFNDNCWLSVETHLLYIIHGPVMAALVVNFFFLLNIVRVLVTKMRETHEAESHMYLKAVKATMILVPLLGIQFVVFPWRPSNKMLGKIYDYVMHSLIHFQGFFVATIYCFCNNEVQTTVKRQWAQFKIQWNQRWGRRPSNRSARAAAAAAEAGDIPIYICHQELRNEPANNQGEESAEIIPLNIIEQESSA

For `CC[C@H](C)[C@H](NC(=O)[C@@H]1CCCN1C(=O)CNC(=O)[C@H](Cc1ccccc1)NC(=O)[C@H](CC(N)=O)NC(=O)[C@H](CC(N)=O)NC(=O)[C@H](CO)NC(=O)[C@H](CO)NC(=O)[C@H](Cc1c[nH]cn1)NC(=O)[C@@H](NC(=O)[C@H](CC(C)C)NC(=O)[C@H](Cc1ccccc1)NC(=O)[C@H](CC(N)=O)NC(=O)[C@H](C)NC(=O)[C@H](CC(C)C)NC(=O)[C@H](CCCNC(=N)N)NC(=O)[C@H](CCC(N)=O)NC(=O)[C@@H](NC(=O)[C@H](C)NC(=O)[C@@H]1CSSC[C@H](NC(=O)[C@H](CCCNC(=N)N)NC(=O)[C@H](CCCNC(=N)N)NC(=O)CC[C@H](NC(=O)CCCCCCCCCCCCCCCCCCC(=O)O)C(=O)O)C(=O)N[C@@H](CC(N)=O)C(=O)N[C@@H]([C@@H](C)O)C(=O)N[C@@H](C)C(=O)N[C@@H]([C@@H](C)O)C(=O)N1)[C@@H](C)O)C(C)C)C(=O)N[C@@H](CC(C)C)C(=O)N1CCC[C@H]1C(=O)N1CCC[C@H]1C(=O)N[C@H](C(=O)N[C@@H](CC(N)=O)C(=O)N[C@H](C(=O)NCC(=O)N[C@@H](CO)C(=O)N[C@@H](CC(N)=O)C(=O)N[C@H](C(=O)N[C@@H](Cc1ccc(O)cc1)C(N)=O)[C@@H](C)O)C(C)C)[C@@H](C)O` [Example 47, N-alpha-[(S)-4-carboxy-4-(19-carboxynonadecanoylamino)butyryl]-Arg-[Arg1]-pramlintide (1-37)] ({C20 diacid-γGlu}-RRCNTATCATQRLANFLVHSSNNFGPILPPTNVGSNTY-NH2; disulfide 3-8; C-terminus assumed), the EC50 was determined as 100 pM.

Take `CC[C@H](C)[C@H](NC(=O)[C@@H]1CCCN1C(=O)CNC(=O)[C@H](Cc1ccccc1)NC(=O)[C@H](CC(N)=O)NC(=O)[C@H](CC(N)=O)NC(=O)[C@H](CO)NC(=O)[C@H](CO)NC(=O)[C@H](Cc1c[nH]cn1)NC(=O)[C@@H](NC(=O)[C@H](CC(C)C)NC(=O)[C@H](Cc1ccccc1)NC(=O)[C@H](CC(N)=O)NC(=O)[C@H](C)NC(=O)[C@H](CC(C)C)NC(=O)[C@H](CCCNC(=N)N)NC(=O)[C@H](CCC(N)=O)NC(=O)[C@@H](NC(=O)[C@H](C)NC(=O)[C@@H]1CSSC[C@H](NC(=O)[C@H](CCCCN)NC(=O)[C@H](CCCCN)NC(=O)CC[C@H](NC(=O)CCCCCCCCCCCCCCCCCCC(=O)O)C(=O)O)C(=O)N[C@@H](CC(N)=O)C(=O)N[C@@H]([C@@H](C)O)C(=O)N[C@@H](C)C(=O)N[C@@H]([C@@H](C)O)C(=O)N1)[C@@H](C)O)C(C)C)C(=O)N[C@@H](CC(C)C)C(=O)N1CCC[C@H]1C(=O)N1CCC[C@H]1C(=O)N[C@H](C(=O)N[C@@H](CC(N)=O)C(=O)N[C@H](C(=O)NCC(=O)N[C@@H](CO)C(=O)N[C@@H](CC(N)=O)C(=O)N[C@H](C(=O)N[C@@H](Cc1ccc(O)cc1)C(N)=O)[C@@H](C)O)C(C)C)[C@@H](C)O` [Example 48, N-alpha-[(S)-4-carboxy-4-(19-carboxynonadecanoylamino)butyryl]-Lys-pramlintide (1-37)] ({C20 diacid-γGlu}-KKCNTATCATQRLANFLVHSSNNFGPILPPTNVGSNTY-NH2; disulfide 3-8): the EC50 was 100 pM.
